In patent US20240391965A1, “STAPLED ANTIMICROBIAL PEPTIDES (STAMPS) AND USES THEREOF” (Lytica Therapeutics, Inc., priority 2021, published 2024):
Values after ≈ are worked out from the molar mass of the structure shown. Starred links: 1 amine or outer side, 2 acyl side, 3 side chain; linkers in the order of their positions; H or OH if unused. Positions of bridges follow the written chain, without caps; N, C: chain ends. Residues, ends and D or L forms follow the SMILES beside them. Biphenyl(4,4'-CH2)2 = c1cc(-c2ccc(C[*:2])cc2)ccc1C[*:1]; mXylylene = c1cc(C[*:1])cc(C[*:2])c1; pXylylene = c1cc(C[*:2])ccc1C[*:1]; X1 = C(=CC[*:2])C[*:1]

What was measured:
[1] = 90 minute cytotoxicity assay (LDH release), renal toxicity; type: cell-based
Text: (§1) In some embodiments, a peptide provided herein has renal toxicity that is at least 10% (e.g., at least 15%, at least 20%, at least 25%, at least 30%, at least 35%, at least 40%, at least 45%, at least 50%, at least 55%, at least 60%, at least 65%, at least 65%, at least 70%, at least 75%, at least 80%, at least 85%, at least 90%, at least 95%, at least 99%) lower than the renal toxicity of the reference. The renal toxicity of a peptide can be measured in vitro using a renal proximal tubule epithelial cell (RPTEC) renal toxicity assay.
(§2) Cell culture: RPTEC were maintained in MEM media supplemented with growth factors. HEPG2 cell line was maintained in Eagle's Minimum Essential Medium (EMEM) supplemented with fetal bovine serum to a final concentration of 10%.
90 minute cytotoxicity assay: Cells were plated in a 96-well format, and after overnight incubation, media was replaced with fresh media. Serial dilutions of StAMPs from a 5 mg/mL water stock, or vehicle, were added to the cells in a final volume of 100 μl. After incubating at 37° C. for 90 min, 50 μl of cell culture media was transferred to a clear 96-well plate, incubated with 50 μl of lactate dehydrogenase (LDH) assay reagent for 10 min, and absorbance measured at 490 nm on a microplate reader.
(§3) Renal toxicity was measured after 90 minutes of incubation, while liver toxicity was measured after 48 hours of incubation with StAMPs. N/A=not tested.

[2] = 48 hours cytotoxicity assay (CellTiter-Glo), liver toxicity; type: cell-based, human
Text: as §1, with “hepatic” for “renal”, “human liver cells (e.g., HepG2)” for “renal proximal tubule epithelial cell (RPTEC) renal”
as §2
48 hours cytotoxicity assay: Cells were plated in a 96-well format, and after 4 hour incubation to allow attachment, serial dilutions of StAMPs from a 5 mg/mL water stock, or vehicle, were then added to the cells in a final volume of 100 μl. After incubating at 37° C. for 48 hours, 100 μl of CellTiter-Glo® reagent was added to the cells, and the plates were incubated 10 minutes at room temperature. Luminescence was then measured on a microplate reader.
as §3

CC[C@H](C)[C@H](NC(=O)CN)C(=O)N[C@@H](Cc1ccccc1)C(=O)N[C@@H](CO)C(=O)N[C@@H](CCCCN)C(=O)N[C@@H](CC(C)C)C(=O)N[C@H]1CSCC=CCSC[C@@H](C(=O)N[C@@H](CCCCN)C(=O)N[C@@H](CC(N)=O)C(=O)N[C@@H](CC(C)C)C(=O)N[C@@H](CC(C)C)C(=O)N[C@H](C(=O)N[C@@H](CO)C(=O)NCC(=O)N[C@@H](CC(C)C)C(=O)N[C@@H](CCCCN)C(=O)NCC(N)=O)[C@@H](C)CC)NC(=O)[C@H](CCCCN)NC(=O)[C@H](CCCCN)NC(=O)CNC1=O [compound 4] (H-GIFSKLCGKKCKNLLISGLKG-NH2; linker 7-11 via X1; N-terminus assumed)
IC50 [1]: ~200 µg/mL (≈ 88.5 µM) | IC50 [2]: 98 µg/mL (≈ 43.4 µM)

CC[C@H](C)[C@H](NC(=O)CN)C(=O)N[C@@H](Cc1ccccc1)C(=O)N[C@H]1CSCc2cccc(c2)CSC[C@@H](C(=O)N[C@@H](CCCCN)C(=O)N[C@@H](CCCCN)C(=O)N[C@H](C(=O)N[C@@H](CCCCN)C(=O)N[C@@H](CC(N)=O)C(=O)N[C@@H](CC(C)C)C(=O)N[C@@H](CC(C)C)C(=O)N[C@H](C(=O)N[C@@H](CO)C(=O)NCC(=O)N[C@@H](CC(C)C)C(=O)N[C@@H](CCCCN)C(=O)NCC(N)=O)[C@@H](C)CC)[C@@H](C)CC)NC(=O)[C@H](C)NC(=O)[C@H](CC(C)C)NC(=O)[C@H](CCCCN)NC1=O [compound 5] (H-GIFCKLACKKIKNLLISGLKG-NH2; linker 4-8 via mXylylene; N-terminus assumed)
IC50 [1]: 14 µg/mL (≈ 5.96 µM) | IC50 [2]: 23 µg/mL (≈ 9.79 µM)

CC[C@H](C)[C@H](NC(=O)CN)C(=O)N[C@@H](Cc1ccccc1)C(=O)N[C@H]1CSCc2ccc(cc2)CSC[C@@H](C(=O)N[C@@H](CCCCN)C(=O)N[C@@H](CCCCN)C(=O)N[C@H](C(=O)N[C@@H](CCCCN)C(=O)N[C@@H](CC(N)=O)C(=O)N[C@@H](CC(C)C)C(=O)N[C@@H](CC(C)C)C(=O)N[C@H](C(=O)N[C@@H](CO)C(=O)NCC(=O)N[C@@H](CC(C)C)C(=O)N[C@@H](CCCCN)C(=O)NCC(N)=O)[C@@H](C)CC)[C@@H](C)CC)NC(=O)[C@H](C)NC(=O)[C@H](CC(C)C)NC(=O)[C@H](CCCCN)NC1=O [compound 6] (H-GIFCKLACKKIKNLLISGLKG-NH2; linker 4-8 via pXylylene; N-terminus assumed)
IC50 [1]: 15 µg/mL (≈ 6.39 µM) | IC50 [2]: 25 µg/mL (≈ 10.6 µM)

CC[C@H](C)[C@H](NC(=O)CN)C(=O)N[C@@H](Cc1ccccc1)C(=O)N[C@H]1CSCC=CCSC[C@@H](C(=O)N[C@@H](CCCCN)C(=O)N[C@@H](CCCCN)C(=O)N[C@H](C(=O)N[C@@H](CCCCN)C(=O)N[C@@H](CC(N)=O)C(=O)N[C@@H](CC(C)C)C(=O)N[C@@H](CC(C)C)C(=O)N[C@H](C(=O)N[C@@H](CO)C(=O)NCC(=O)N[C@@H](CC(C)C)C(=O)N[C@@H](CCCCN)C(=O)NCC(N)=O)[C@@H](C)CC)[C@@H](C)CC)NC(=O)[C@H](C)NC(=O)[C@H](CC(C)C)NC(=O)[C@H](CCCCN)NC1=O [compound 7] (H-GIFCKLACKKIKNLLISGLKG-NH2; linker 4-8 via X1; N-terminus assumed)
IC50 [1]: 62 µg/mL (≈ 27 µM) | IC50 [2]: 51 µg/mL (≈ 22.2 µM)

CC[C@H](C)[C@H](NC(=O)CN)C(=O)N[C@@H](Cc1ccccc1)C(=O)N[C@@H](CO)C(=O)N[C@@H](CCCCN)C(=O)N[C@H]1CSCc2ccc(cc2)CSC[C@@H](C(=O)N[C@H](C(=O)N[C@@H](CCCCN)C(=O)N[C@@H](CC(N)=O)C(=O)N[C@@H](CC(C)C)C(=O)N[C@@H](CC(C)C)C(=O)N[C@H](C(=O)N[C@@H](CO)C(=O)NCC(=O)N[C@@H](CC(C)C)C(=O)N[C@@H](CCCCN)C(=O)NCC(N)=O)[C@@H](C)CC)[C@@H](C)CC)NC(=O)[C@H](CCCCN)NC(=O)CNC(=O)[C@H](C)NC1=O [compound 8] (H-GIFSKCAGKCIKNLLISGLKG-NH2; linker 6-10 via pXylylene; N-terminus assumed)
IC50 [1]: 119 µg/mL (≈ 52.8 µM) | IC50 [2]: 15 µg/mL (≈ 6.66 µM)

CC[C@H](C)[C@H](NC(=O)CN)C(=O)N[C@@H](Cc1ccccc1)C(=O)N[C@@H](CO)C(=O)N[C@@H](CCCCN)C(=O)N[C@H]1CSCC=CCSC[C@@H](C(=O)N[C@H](C(=O)N[C@@H](CCCCN)C(=O)N[C@@H](CC(N)=O)C(=O)N[C@@H](CC(C)C)C(=O)N[C@@H](CC(C)C)C(=O)N[C@H](C(=O)N[C@@H](CO)C(=O)NCC(=O)N[C@@H](CC(C)C)C(=O)N[C@@H](CCCCN)C(=O)NCC(N)=O)[C@@H](C)CC)[C@@H](C)CC)NC(=O)[C@H](CCCCN)NC(=O)CNC(=O)[C@H](C)NC1=O [compound 9] (H-GIFSKCAGKCIKNLLISGLKG-NH2; linker 6-10 via X1; N-terminus assumed)
IC50 [1]: > 200 µg/mL | IC50 [2]: 39 µg/mL (≈ 17.7 µM)

CC[C@H](C)[C@H](NC(=O)CN)C(=O)N[C@@H](Cc1ccccc1)C(=O)N[C@@H](CO)C(=O)N[C@@H](CCCCN)C(=O)N[C@@H](CC(C)C)C(=O)N[C@@H](C)C(=O)NCC(=O)N[C@@H](CCCCN)C(=O)N[C@H]1CSCc2ccc(cc2)-c2ccc(cc2)CSC[C@@H](C(=O)NCC(=O)N[C@@H](CC(C)C)C(=O)N[C@@H](CCCCN)C(=O)NCC(N)=O)NC(=O)[C@H]([C@@H](C)CC)NC(=O)[C@H](CC(C)C)NC(=O)[C@H](CC(C)C)NC(=O)[C@H](CC(N)=O)NC(=O)[C@H](CCCCN)NC(=O)[C@H]([C@@H](C)CC)NC1=O [compound 74] (H-GIFSKLAGKCIKNLLICGLKG-NH2; linker 10-17 via Biphenyl(4,4'-CH2)2; N-terminus assumed)
IC50 [1]: 4 µg/mL (≈ 1.7 µM)

CC[C@H](C)[C@H](NC(=O)CN)C(=O)N[C@@H](Cc1ccccc1)C(=O)N[C@@H](CO)C(=O)N[C@@H](CCCCN)C(=O)N[C@@H](CC(C)C)C(=O)N[C@@H](C)C(=O)NCC(=O)N[C@@H](CCCCN)C(=O)N[C@@H](CCCCN)C(=O)N[C@H](C(=O)N[C@H]1CSCc2ccc(cc2)-c2ccc(cc2)CSC[C@@H](C(=O)N[C@@H](CCCCN)C(=O)NCC(N)=O)NC(=O)CNC(=O)[C@H](CO)NC(=O)[C@H]([C@@H](C)CC)NC(=O)[C@H](CC(C)C)NC(=O)[C@H](CC(C)C)NC(=O)[C@H](CC(N)=O)NC1=O)[C@@H](C)CC [compound 79] (H-GIFSKLAGKKICNLLISGCKG-NH2; linker 12-19 via Biphenyl(4,4'-CH2)2; N-terminus assumed)
IC50 [2]: 50 µg/mL (≈ 21.5 µM)

CC[C@H](C)[C@H](NC(=O)CN)C(=O)N[C@@H](Cc1ccccc1)C(=O)N[C@@H](CO)C(=O)N[C@@H](CCCCN)C(=O)N[C@@H](CC(C)C)C(=O)N[C@@H](C)C(=O)NCC(=O)N[C@@H](CCCCN)C(=O)N[C@@H](CCCCN)C(=O)N[C@H](C(=O)N[C@@H](CCCCN)C(=O)N[C@@H](CC(N)=O)C(=O)N[C@H]1CSCc2ccc(cc2)-c2ccc(cc2)CSC[C@@H](C(N)=O)NC(=O)[C@H](CCCCN)NC(=O)[C@H](CC(C)C)NC(=O)CNC(=O)[C@H](CO)NC(=O)[C@H]([C@@H](C)CC)NC(=O)[C@H](CC(C)C)NC1=O)[C@@H](C)CC [compound 86] (H-GIFSKLAGKKIKNCLISGLKC-NH2; linker 14-21 via Biphenyl(4,4'-CH2)2; N-terminus assumed)
IC50 [2]: 9 µg/mL (≈ 3.75 µM)

CC[C@H](C)[C@H](NC(=O)CN)C(=O)N[C@@H](Cc1ccccc1)C(=O)N[C@@H](CO)C(=O)N[C@@H](CCCCN)C(=O)N[C@@H](CC(C)C)C(=O)N[C@H]1CSCc2ccc(cc2)CSC[C@@H](C(=O)N[C@@H](CCCCN)C(=O)N[C@@H](CC(N)=O)C(=O)N[C@@H](CC(C)C)C(=O)N[C@@H](CC(C)C)C(=O)N[C@H](C(=O)N[C@H]2CSCc3ccc(cc3)CSC[C@@H](C(N)=O)NC(=O)[C@H](CCCCN)NC(=O)[C@H](CC(C)C)NC(=O)CNC2=O)[C@@H](C)CC)NC(=O)[C@H](CCCCN)NC(=O)[C@H](CCCCN)NC(=O)CNC1=O [compound 90] (H-GIFSKLCGKKCKNLLICGLKC-NH2; linker 7-11, 17-21 via pXylylene; N-terminus assumed)
IC50 ([1]; 90 minutes of incubation, LDH release, read-out: Inhibitory Concentration at 50% Cytotoxicity (IC50) Human Renal Proximal Tubule Epithelial Cells (RPTEC)): > 200 µg/mL

CC[C@H](C)[C@H](NC(=O)CN)C(=O)N[C@@H](Cc1ccccc1)C(=O)N[C@@H](CO)C(=O)N[C@@H](CCCCN)C(=O)N[C@@H](CC(C)C)C(=O)N[C@H]1CSCc2cccc(c2)CSC[C@@H](C(=O)N[C@@H](CCCCN)C(=O)N[C@@H](CC(N)=O)C(=O)N[C@@H](CC(C)C)C(=O)N[C@@H](CC(C)C)C(=O)N[C@H](C(=O)N[C@@H](CO)C(=O)NCC(=O)N[C@@H](CC(C)C)C(=O)N[C@@H](CCCCN)C(=O)NCC(=O)O)[C@@H](C)CC)NC(=O)[C@H](CCCCN)NC(=O)[C@H](CCCCN)NC(=O)CNC1=O [compound 91] (H-GIFSKLCGKKCKNLLISGLKG-OH; linker 7-11 via mXylylene; N-terminus assumed)
IC50 [1]: > 200 µg/mL
